Experimental data: patent publication US20160262664A1, “Detection Of Disease Using Gesture Writing Bio-Markers” (priority 2015, published 2016)

Tested on: PD patient
Assay: EMG analysis during rest, postural and writing activity in the same subject before and after medication (monitoring of drug effectiveness)
Assay type: in vivo
Conditions: after meds
Text: Technology for detecting Parkinson's disease (PD) comprises of a group of indicators (endpoints) that are based on various Electromyography (EMG) properties of hand muscles during gesture writing as well as kinematics and pen traces. Gesture writing is the type of writing, when part of the time a pen is touching the tablet (writing activity) and part of the time a pen is not touching the tablet (postural activity). During postural period a hand is held against gravity. Postural EMG activity can be found programmatically by analyzing the writing activity, since it is known from the tablet recording when a pen was touching a tablet and not touching the tablet. In addition, EMG at rest is recorded, while both hands are lying on a table. The properties of resting EMG signals are also included in the analysis. Two differential channels of EMG are recorded from each hand. EMG recordings are synchronized with the input from the tablet PC.
In one example, 100 trials were administered. A beep sound denotes the end of one trial and beginning of the next trial. Writing activity was analyzed while a subject was writing a number “3” in cursive. The length of each trial was 5 sec. During “rest,” trials with a length of 5 sec each were generated. Postural trials were selected by a computer program. 100 trials for each type of activity were recorded. A large number of trials (around 100) is very important in the analysis, because muscle activity has high variability. A statistical ensemble is created in order for statistical analysis to be applied. A confidence interval was calculated to confirm the existence of peaks in Fast Fourier Transform (FFT).
Condition 1: Resting. The experimental session started with a recording where the participants were resting with both hands, forearms, and elbows on the table. During one continuous recording the experimenter triggered at least 25 trials of 5 seconds by touching the electronic pen on the tablet after each beep. In total 4 such files were recorded with 1-minute pauses in between, yielding 100 resting trials in total. During the pause the participants rested their hands on their knees.
Condition 2: Character-Writing and postural control of pen lift. After the resting session the participants were instructed to wait with the pen lifted while the entire forearm including elbow rested on the table. Upon hearing the beep participants were to touch the tablet with the pen and write character “3” as fast and convenient as possible and then lift the pen until the next beep. The next beep was automatically generated 4 seconds after the pen lift. As the participants were instructed to keep their forearms resting on the table the thumb muscles were optimally involved in producing character “3”. The non-writing arm rested on the table as in the resting condition. The writing segment was defined as the 5-second segment starting 2 seconds before the pen touched the writing surface till 3 seconds after that (See FIG. 3). We also defined a postural segment starting when the pen was lifted till the beep that was generated 4 seconds later. Thus each trial included a writing segment and a postural segment. The experimenter ensured that after the first trial at least 25 good trials were recorded. The experimenter ensured that at least 25 successful trials were recorded. This means that the subject had to write a complete character and only after that they lift up the pen and waited for a beep to start writing another character. All trials, including incidentally failed trials (except first and last one) were included in the analysis. After recording 25 acceptable trials, the participant was instructed to pause for 1 minute with both hands on the knees like in the resting condition. In total 4 files of 5 minutes were recorded yielding 100 trials.
Our Norconnect DH software (written in MATLAB, MathWorks, Natick, Mass., USA) processed the EMGs and handwriting kinematics to quantify 8 PD indicators (See Table 2). […]

[1] = EMG spectral peak, in 4 channels

`C#CCN[C@@H]1CCc2ccccc21` [Rosageline] was tested, and the “Tremor, Postural” value [1] was “No (in 4”, the “Tremor, Rest” value [1] was “No (in 4” and the “Stiffness, spectral density maximum, Postural, ch3” value (ch3 left hand) was “ch.3: 2 mV”. The “Stiffness, spectral density maximum, Postural, ch4” value (ch4 left hand) was “ch4: 1.1 (mV)”, the “Weakness, mean intensity, Writing, ch1” value (criterion <0.005 mV^2, ch1) was “ch1: 0.003 mV^2” and the “Weakness, mean intensity, Writing, ch2” value (criterion <0.005 mV^2, ch2) was “ch2: 0.018 (mV^2)”. The “Stiffness, spectral density maximum, Rest, ch1” value (criterion >0.5 mV, ch1 right hand) was “ch1: 2 mV”, the “Stiffness, spectral density maximum, Rest, ch2” value (criterion >0.5 mV, ch2 right hand) was “ch2: 2.4 mV” and the “Stiffness, spectral density maximum, Rest, ch3” value (criterion >0.5 mV, ch3 left hand) was “ch3: 0.6 mV”. For the same compound, the “Stiffness, spectral density maximum, Rest, ch4” value (criterion >0.5 mV, ch4 left hand) was “ch4: 0.6 (mV)”, the “Stiffness, spectral density maximum, Postural, ch1” value (criterion >1 mV, ch1 right hand) was “ch1: 2 mV” and the “Stiffness, spectral density maximum, Postural, ch2” value (criterion >1 mV, ch2 right hand) was “ch2: 7.5 mV”.
